In US9707239B2, “Compounds that modulate oxidative stress” (vTv Therapeutics LLC, priority 2011, dated 2017):
Entries after “also recorded” stand apart in the source; their conditions may differ.

Experiments:
Format in all cases: cell-based, human
ICAM = assay: mRNA expression (Quantigene Plex) in NHLF cells: ICAM; details: Table 5, 6 h, mRNA normalized to GAPDH, above DMSO treated cells
Protocol: (§1) Secondary growth of NHLF cells were used for all assays. Cell were thawed and then placed into culture in T225 flasks. The cells were grown to 80% confluency and harvested by washing once with HEPES buffered saline solution and then trypsinizing. Equal numbers (7×10^3 cells per well) of NHLF cells were plated in 96 well tissue culture plates (Corning). Cells were incubated overnight in FGM-2 medium prior to exposure to compound. Cells were treated with either DMSO or a compound as described below for 6 h. Preparation of cell lysates was carried out according to instructions using the Quantigene Reagent system 2.0 protocol (Panomics). mRNA induction was detected from cell lysate using the Quantigene Plex 2.0 Assay Kit (Panomics) on the Luminex platform (BIO-RAD). Expression of GAPDH mRNA was used as the internal control for the Quantigen Plex 2.0 Assay. The data in Tables 5 and 6 represents the fold change of target mRNA expression, normalized to control values, above DMSO treated cells.

Keap1 = assay: HMOX1 induction after Keap1 silencing (shRNA); details: NHLF cells, FIG. 6
Protocol: Normal human lung fibroblasts were plated in a 12-well tissue culture dish at 16,000 cells/well and allowed to attach overnight. Regular medium was then replaced with 200 μl of fresh growth medium containing 8 μg/ml hexadimethrine bromide (polybrene). Lentiviral transduction particles were then added in the following amounts: Control shRNA (1.1×10^7 TU/ml, Sigma, cat# SHC002V), 15 μl for an MOI of 10; KEAP-1 shRNA (6.3×10^6 TU/ml, Sigma, cat# SHCLNV-TRCN0000046092), 63 μl for an MOI of 20. After 4 hours in the cell culture incubator, another 200 μl of growth medium was added on top of the original volume. Cells were replenished the next day with fresh complete growth medium and were allowed to recover for 24 hours, after which selection medium was applied (complete medium with 1 μg/ml puromycin).
Another method of testing the role of the Nrf2 regulatory pathway on compound activity is to determine the effect of silencing Keap1 on HMOX1 gene expression. It is known that deleting Keap1 will result in the induction of Nrf2 dependent genes but not, to any significant degree, HMOX1. The proposed explanation for this observation is that HMOX1 requires the concomitant derepression of Bach1 activity and that this event is more dependent on active processes (e.g., heme binding, changes in redox potential of the cell, phosphorylation of Bach1, etc.). We therefore tested the ability of Compound 13 and tool compounds to induce HMOX1 in the presence of silencing of Keap1 in normal human lung fibroblasts.
Normal human lung fibroblasts were tested with DMSO, CoPP, Compound 13, and two derivatives including Compound 4 and Compound 8. An electrophile, Compound 1, was also included in the test set. […] On the other hand, induction of HMOX1 by the electrophile Compound 1 was inhibited.

HMOX1 = assay: Effect of NAC on compound induction of HMOX gene expression; details: NHLF cells pretreated with 5 mM NAC 1 hr, compound 6 h, FIG. 4
Protocol: NHLF cells were grown to 80% confluency and harvested by washing once with HEPES and then trypsinizing. Equal numbers (7×10^4 cells per well) of NHLF cells were plated in 96 well tissue culture (Corning) plates. Cells were incubated overnight in FGM-2 medium prior to exposure to compound. Cells were pretreated with 5 mM N-acetyl cysteine for 1 hr. Cells were treated with either DMSO or compound for 6 h. Preparation of cell lysates was carried out according to Quantigene Reagent system 2.0 protocol (Panomics). Heme oxygenase mRNA induction was detected from cell lysate using the Quantigene Plex 2.0 Assay Kit (Panomics) on the Luminex platform (BIO-RAD). Expression of GAPDH mRNA was used as the internal control for the Quantigen Plex 2.0 Assay. Heme oxygenase data represents the fold change, normalized to control values, above DMSO treated cells.
A further test of the hypothesis that Compound 13 induces HMOX1 with minimal alteration of cellular redox levels or chemical reactivity was carried out by treating cells with N-acetyl cysteine (NAC). This compound acts to restore cellular glutathione levels and thus prevent oxidative stress. The degree to which NAC can suppress HMOX1 induction is an indicator of the amount of chemical reactivity or ROS stress that a compound is imposing on the cell and thus activating phase II gene transcription. […] Coupled with the data shown in FIG. 3, it is concluded that Compound 13 induces HMOX1 with minimal elevation of ROS or NAC-sensitive chemical reactivity.

HSPA6 = assay: mRNA expression (Quantigene Plex) in NHLF cells: HSPA6; details: Table 5, 6 h, mRNA normalized to GAPDH, above DMSO treated cells
Protocol: as §1

NHLF cells = assay: ROS measurements (H2DCF-DA imaging); details: 1 hr, cell-by-cell imaging, FIG. 3A/3B
In short: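 Secondary-passage NHLF cells (2,000/well, overnight) loaded 30 min with H2DCF-DA, 10 μM ferric ammonium citrate and Hoechst, washed, then treated with compound in FBM-2 medium 1 h at 37 °C, 5% CO2. ROS quantified by automated fluorescence imaging of DCF signal.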

ATF4 = assay: mRNA expression (Quantigene Plex) in NHLF cells: ATF4; details: Table 5, 6 h, mRNA normalized to GAPDH, above DMSO treated cells
Protocol: as §1

- ICAM (fold induction) (ICAM): nor did it induce
- ICAM (fold induction) (ICAM; listed as #13): 1.1 fold induction
- HSPA6 (fold induction) (HSPA6): did not induce
- HSPA6 (fold induction) (HSPA6; listed as #13): 0.96 fold induction
- ATF4 (fold induction) (ATF4): 1.2 fold induction
SMILES: O=C(Nc1ccc2cn[nH]c2c1)c1ccc2[nH]c(Nc3nc4ccccc4s3)nc2c1 [Compound 13, 2-(Benzothiazol-2-ylamino)-1H-benzoimidazole-5-carboxylic acid (1H-indazol-6-yl)-amide]
- HMOX1 induction in the presence of Keap1 silencing (Keap1): unaffected in their ability to induce HMOX1 in the presence of Keap1 silencing; also recorded: behaves similarly to CoPP induction
- effect of N-acetyl cysteine (NAC) on HMOX1 induction (HMOX1): induces the greatest amount of HMOX1 with the least impact by NAC; also recorded: still induces HMOX1 expression in the presence of NAC
- ROS production (in words) (NHLF cells): modestly elevated ROS production; also recorded: little increase in ROS production
